Laboratory results from ChEMBL document CHEMBL1687783, “Prevalence and dissemination of oqxAB in Escherichia coli isolates from animals, farmworkers, and the environment” (2010).
≈ marks a conversion by molar mass, not a printed value.

Legend:
[1] = test system: Escherichia coli; experiment: Antimicrobial activity against oqxAB positive Escherichia coli C600 W191-T transconjugant by CLSI agar dilution method; assay type: functional
[2] = test system: Escherichia coli; experiment: Antimicrobial activity against Escherichia coli C600 ST2-T transconjugant harboring oqxAB, qnrB6 and aac(6')-Ib-cr genes by CLSI agar dilution method; assay type: functional
[3] = test system: Escherichia coli; experiment: Antimicrobial activity against oqxAB positive Escherichia coli C600 W322-T transconjugant by CLSI agar dilution method; assay type: functional
[4] = test system: Escherichia coli; experiment: Antimicrobial activity against oqxAB positive Escherichia coli C600 SP8-T transconjugant by CLSI agar dilution method; assay type: functional
[5] = test system: Escherichia coli; experiment: Antimicrobial activity against oqxAB positive Escherichia coli C600 D83-T transconjugant by CLSI agar dilution method; assay type: functional
[6] = test system: Escherichia coli; experiment: Antimicrobial activity against oqxAB positive Escherichia coli C600 W281-T transconjugant by CLSI agar dilution method
[7] = test system: Escherichia coli; experiment: Antimicrobial activity against oqxAB positive Escherichia coli C600 G062-T transconjugant by CLSI agar dilution method
[8] = test system: Escherichia coli; experiment: Antimicrobial activity against Escherichia coli DH5[alpha] by CLSI agar dilution method
[9] = test system: Escherichia coli; experiment: Antimicrobial activity against oqxAB positive Escherichia coli C600 G262-T transconjugant by CLSI agar dilution method
[10] = test system: Escherichia coli; experiment: Antimicrobial activity against oqxAB positive Escherichia coli C600 SW8-T transconjugant by CLSI agar dilution method; assay type: functional
[11] = test system: Escherichia coli; experiment: Antimicrobial activity against oqxAB positive Escherichia coli C600 W245-T transconjugant by CLSI agar dilution method; assay type: functional
[12] = test system: Escherichia coli; experiment: Antimicrobial activity against oqxAB positive Escherichia coli DH5[alpha] harboring pMD18-T::oqxAB by CLSI agar dilution method; assay type: functional
[13] = test system: Escherichia coli; experiment: Antimicrobial activity against oqxAB positive Escherichia coli C600 XT11-T transconjugant by CLSI agar dilution method
[14] = test system: Escherichia coli; experiment: Antimicrobial activity against oqxAB positive Escherichia coli C600 X1B1-T transconjugant by CLSI agar dilution method
[15] = test system: Escherichia coli; experiment: Antimicrobial activity against Escherichia coli C600 by CLSI agar dilution method
[16] = test system: Escherichia coli; experiment: Antimicrobial activity against oqxAB positive Escherichia coli C600 G375-T transconjugant by CLSI agar dilution method; assay type: functional

Molecule	MIC [1]	MIC [2]	MIC [3]	MIC [4]	MIC [5]	MIC [6]	MIC [7]	MIC [8]	MIC [9]	MIC [10]	MIC [11]	MIC [12]	MIC [13]	MIC [14]	MIC [15]	MIC [16]
CN(C)[C@@H]1C(O)=C(C(N)=O)C(=O)[C@@]2(O)C(O)=C3C(=O)c4c(O)cccc4[C@@](C)(O)[C@H]3C[C@@H]12 [TETRACYCLINE]	64 µg/mL (≈ 144 µM)	2 µg/mL (≈ 4.5 µM)	1 µg/mL (≈ 2.25 µM)	2 µg/mL (≈ 4.5 µM)	4 µg/mL (≈ 9 µM)	2 µg/mL (≈ 4.5 µM)	4 µg/mL (≈ 9 µM)	2 µg/mL (≈ 4.5 µM)	32 µg/mL (≈ 72 µM)	1 µg/mL (≈ 2.25 µM)	1 µg/mL (≈ 2.25 µM)	4 µg/mL (≈ 9 µM)	64 µg/mL (≈ 144 µM)	32 µg/mL (≈ 72 µM)	1 µg/mL (≈ 2.25 µM)	4 µg/mL (≈ 9 µM)
O=C(N[C@H](CO)[C@H](O)c1ccc([N+](=O)[O-])cc1)C(Cl)Cl [CHLORAMPHENICOL]	128 µg/mL (≈ 396 µM)	32 µg/mL (≈ 99 µM)	64 µg/mL (≈ 198 µM)	64 µg/mL (≈ 198 µM)	32 µg/mL (≈ 99 µM)	128 µg/mL (≈ 396 µM)	32 µg/mL (≈ 99 µM)	4 µg/mL (≈ 12.4 µM)	128 µg/mL (≈ 396 µM)	128 µg/mL (≈ 396 µM)	64 µg/mL (≈ 198 µM)	64 µg/mL (≈ 198 µM)	128 µg/mL (≈ 396 µM)	128 µg/mL (≈ 396 µM)	4 µg/mL (≈ 12.4 µM)	32 µg/mL (≈ 99 µM)
CN[C@@H]1[C@H](O[C@H]2[C@H](O[C@H]3[C@H](O)[C@@H](O)[C@H](N=C(N)N)[C@@H](O)[C@@H]3N=C(N)N)O[C@@H](C)[C@]2(O)C=O)O[C@@H](CO)[C@H](O)[C@H]1O [STREPTOMYCIN]	> 514 µg/mL	> 523 µg/mL	> 515 µg/mL	> 524 µg/mL	> 525 µg/mL	> 513 µg/mL	> 518 µg/mL	4 µg/mL (≈ 6.88 µM)	> 517 µg/mL	> 522 µg/mL	> 516 µg/mL	2 µg/mL (≈ 3.44 µM)	> 521 µg/mL	> 520 µg/mL	> 512 µg/mL	> 519 µg/mL
CC(=O)c1c(C)[n+]([O-])c2ccccc2[n+]1[O-] [MEQUINDOX]	128 µg/mL (≈ 587 µM)	128 µg/mL (≈ 587 µM)	256 µg/mL (≈ 1170 µM)	256 µg/mL (≈ 1170 µM)	128 µg/mL (≈ 587 µM)	64 µg/mL (≈ 293 µM)	128 µg/mL (≈ 587 µM)	4 µg/mL (≈ 18.3 µM)	128 µg/mL (≈ 587 µM)	256 µg/mL (≈ 1170 µM)	128 µg/mL (≈ 587 µM)	64 µg/mL (≈ 293 µM)	128 µg/mL (≈ 587 µM)	64 µg/mL (≈ 293 µM)	4 µg/mL (≈ 18.3 µM)	256 µg/mL (≈ 1170 µM)
GENTAMICIN	1 µg/mL	0.25 µg/mL	0.125 µg/mL	0.25 µg/mL	0.25 µg/mL					32 µg/mL	0.25 µg/mL	0.125 µg/mL				0.25 µg/mL
